US20210386705A1, “APPLICATION OF CHIGLITAZAR AND RELATED COMPOUNDS THEREOF” (SHENZHEN CHIPSCREEN BIOSCIENCES CO., LTD., priority 2018, published 2021)
Where “and” joins values, the source holds several entries; their conditions need not be identical. Equal values may be shown once.

What was measured:
[1] = target: T1, PPARα (Homo sapiens, UniProt Q07869); experiment: PPAR reporter gene model in L-02 cells, PPARα; type: cell-based; settings: luciferase reporter, 24 hours drug, read-out: Half-maximal activation concentration of reporter gene AC50, PPARα
T1 construct: expressed in transfected cells; host or cells: human hepatocyte cell line L-02
T1 sequence (Q07869 1-468): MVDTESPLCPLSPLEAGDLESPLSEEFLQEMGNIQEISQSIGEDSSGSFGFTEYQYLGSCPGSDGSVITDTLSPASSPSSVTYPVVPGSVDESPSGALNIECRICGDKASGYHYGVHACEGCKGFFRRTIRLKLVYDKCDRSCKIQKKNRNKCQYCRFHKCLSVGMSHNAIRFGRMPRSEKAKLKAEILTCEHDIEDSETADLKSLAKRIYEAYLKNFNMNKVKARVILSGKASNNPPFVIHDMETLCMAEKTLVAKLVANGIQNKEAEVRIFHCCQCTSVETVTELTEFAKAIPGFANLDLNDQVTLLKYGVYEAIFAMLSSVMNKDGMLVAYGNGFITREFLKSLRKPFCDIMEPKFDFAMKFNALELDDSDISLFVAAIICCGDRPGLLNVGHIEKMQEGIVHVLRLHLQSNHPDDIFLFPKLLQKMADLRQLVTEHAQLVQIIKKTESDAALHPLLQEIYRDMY
Experimental: The PPAR reporter gene model comprises three subtypes of expression plasmids, RXR expression plasmid, plasmid with luciferase reporter gene, and GFP expression plasmid as an external reference. The human hepatocyte cell line L-02 cells were seeded into 96-well plates at the density of 15,000 cells/well with about 50% plating rate, followed by culturing for 24 hours at 37° C. […] The fluorescence intensity (at wavelength 485-527 nm) of green fluorescent protein (GFP) in each well was firstly detected as an internal standard by a fluorescence detector, and then 30 μL of luciferase substrates (Promega, E151A) were added to each well. After slightly shaking to mix well, the […] were detected. The relative reporter gene activation intensity was obtained by the ratio of the fluorescence detection signal of the drugs to be tested to that of the solvent control, with both the signals normalized to the internal standard GFP signal. The half-maximal activation (AC50) of the drugs to be tested was calculated with the activity at various concentrations (shown in Table 1).

[2] = system: α-smooth muscle actin (α-SMA); experiment: TGF-β1-activated hepatic stellate cells, α-SMA gene expression (qPCR); type: cell-based, human; settings: TGF-β1 stimulation, 24 hours; FIG. 4
Experimental: Human primary hepatic stellate cells were seeded into 6-well plates with complete growth media (Stellate Cell Medium) for 24 hours, and then the culture media were replaced by fresh media (free of serum and growth factors) containing TGF-β1 and the compound to be tested (sodium chiglitazar) or the reference compound PPARγ/α dual agonist pioglitazone or PPARα/δ dual agonist GFT505 (both purchased from Selleck), and the cells were cultured for 24 hours. The total RNAs of the samples were extracted, and reverse transcription reaction was performed. Thereafter, a conventional PCR amplification kit (FastStart Universal SYBR@ Green Master (ROX), Roche) was used for further detection, where the PCR primers were designed with reference to the NCBI standard mRNA sequence of the target genes (Table 2). PCR reaction and detection were carried out on the ABI StepOnePlus real-time quantitative PCR instrument. By calculating the relative amount of transcripts was calculate by “Delta-Delta CT method” (Livak et al. Methods 2001), and using ACTB as the housekeeping gene for normalization and the average data of untreated human hepatic stellate cells as a reference control, the relative change folds of gene expression were obtained (FIG. 4).

[3] = system: monocytic cell line THP-1; experiment: MCP-1-induced chemotaxis of THP-1 cells (Transwell); type: cell-based, human; settings: MCP-1 10 ng/mL, compound 3 μmol/L
Text: In an in vitro model, migration of the monocytic cell line THP-1 induced by a certain concentration of chemokines (such as monocyte chemotactic protein 1, MCP-1), and accordingly such in vivo process was mimicked. Transwell technology, according to the manufacturer's instructions from Corning Inc., is considered that Traswell is a kind of a polycarbonate membrane filter as well as a permeable holder. The polycarbonate membrane divides a culture chamber into upper and lower ones, where the components of the culture medium in the lower chamber can affect the growth, differentiation and movement of the cells in upper chamber. Finally, the cell migration ability can be reflected by staining and counting the cells in the lower chamber.
When cultured to the log phase stage, THP-1 cells were resuspended, adjusted the concentration, and seeded in 24-well plates, followed by being pretreated with the culture media containing the compound to be tested (sodium chiglitazar) or the reference compound GFT505, pioglitazone, or PPARγ single agonist rosiglitazone (all purchased from Selleck) for 24 hours. Transwells were used according to the manufacturer's instructions. The culture media containing chemokine MCP-1 were added to the lower chamber (i.e., the bottom of the 24-well plates), and the cell suspension was added to the upper chamber and cultured for 4 hours. Later, the cells cultured on the “ceiling” surface of the polycarbonate membrane were fixed and stained with crystal violet solution (FIG. 6), and then the number of cells in the lower chamber was counted (Table 3).

[4] = 24 hours pretreatment, 4 hours migration

O=C(c1ccc(F)cc1)c1ccccc1N[C@@H](Cc1ccc(OCCn2c3ccccc3c3ccccc32)cc1)C(=O)[O-].[Na+] [sodium chiglitazar]
AC50 [1]: 1.1 µM | Effect on expression of α-smooth muscle actin [2]: significantly inhibited | Cell concentration in lower chamber, Mean value [3, 4]: 10012 cells/ml | Cell concentration in lower chamber, single replicates [3, 4]: 10630 cells/ml and 9760 cells/ml and 9646 cells/ml | Inhibition of migration activity of THP-1 induced by monocyte chemokine (in words) ([3]; Table 3 and FIG. 6): significantly inhibited | Migration rate ([3]; solvent control + MCP-1 = 100): 33.12%
